Experimental data reported in ChEMBL document CHEMBL5543162, “Discovery of a Novel Orally Bioavailable FLT3-PROTAC Degrader for Efficient Treatment of Acute Myeloid Leukemia and Overcoming Resistance of FLT3 Inhibitors” (J Med Chem, 2024).
The source made the active and inactive calls. The calls are words filed in the database; no cut-off is given here.

Legend:
MV4-11 [1] = assay: Antitumor activity against human MV4-11 cells xenografted in nu/nu mouse at 10 mg/kg, po administered daily for 2 weeks relative to control; type: functional; details: MV4-11, 336 h, read-out: TGI
[2] = AUC (0 to t) in Sprague-Dawley rat at 10 mg/kg, po measured for 24 hrs by LC-MS/MS analysis; type: ADME, organism-based; details: in vivo
[3] = Stability in dog liver microsomes assessed as intrinsic clearance; type: ADME, Canis lupus familiaris, Microsome; details: read-out: CLH
[4] = system: Protein cereblon/Receptor-type tyrosine-protein kinase FLT3 (Homo sapiens), P36888+Q96SW2 [UNDEFINED MUTATION]; assay: PROTAC activity at CRBN/FLT3-ITD mutant in human MV4-11 cells assessed as protein degradation at 20 nM by Western blot analysis; type: cell-based; details: time <= 12.0 hrs, TDE = time-dependent effect
[5] = Toxicity in NSG mouse xenografted with human MV4-11 cells expressing luciferase assessed as obvious adverse response at 1.25 to 10 mg/kg, po administered daily for 3 weeks; type: organism-based; details: in vivo, 504 h, dose 1.25-10 mg/kg
[6] = system: Protein cereblon/Receptor-type tyrosine-protein kinase FLT3 (Homo sapiens), P36888+Q96SW2 [UNDEFINED MUTATION]; assay: PROTAC activity at CRBN/FLT3-ITD mutant in human MV4-11 cells assessed as protein degradation incubated for 12 hrs by Western blot analysis; type: cell-based; details: dose <= 20.0 nM
[7] = Stability in rat liver microsomes assessed as hepatic clearance; type: ADME, Microsome
BaF3 [8] = assay: Antiproliferative activity against mouse Ba/F3 cells expressing FLT3-ITD F691L mutant incubated for 48 hrs by CCK8 assay; type: functional, cell-based; details: BaF3, 48 h
BaF3 [9] = assay: Antiproliferative activity against mouse Ba/F3 cells expressing FLT3-ITD D835Y mutant incubated for 48 hrs by CCK8 assay; type: functional, cell-based; details: BaF3, 48 h
Cytochrome P450 1A2 = biological target: T1, Cytochrome P450 1A2 (Homo sapiens, UniProt P05177); assay: Inhibition of CYP1A2 (unknown origin); type: ADME
T1 sequence (P05177 whole entry): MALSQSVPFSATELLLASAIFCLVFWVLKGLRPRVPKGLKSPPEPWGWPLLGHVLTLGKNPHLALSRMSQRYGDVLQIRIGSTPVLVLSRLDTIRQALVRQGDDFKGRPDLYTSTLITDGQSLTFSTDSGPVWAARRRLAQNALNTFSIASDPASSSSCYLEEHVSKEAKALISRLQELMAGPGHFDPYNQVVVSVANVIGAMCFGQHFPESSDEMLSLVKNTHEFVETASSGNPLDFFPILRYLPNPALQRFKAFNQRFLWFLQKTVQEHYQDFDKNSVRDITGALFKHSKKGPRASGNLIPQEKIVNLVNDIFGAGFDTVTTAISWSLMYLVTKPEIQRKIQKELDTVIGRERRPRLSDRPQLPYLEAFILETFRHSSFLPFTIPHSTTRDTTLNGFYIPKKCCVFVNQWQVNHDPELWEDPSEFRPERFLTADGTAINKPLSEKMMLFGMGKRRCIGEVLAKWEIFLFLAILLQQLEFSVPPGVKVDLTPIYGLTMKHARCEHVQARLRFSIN

[10] = Antiproliferative activity against human U-937 cells expressing wild-type FLT3 incubated for 48 hrs by CCK8 assay; type: toxicity, cell-based
[11] = Toxicity in nu/nu mouse xenografted with human MV4-11 cells assessed as damage in spleen at 1.25 to 10 mg/kg, po administered daily for 2 weeks by H and E staining based analysis; type: organism-based; details: in vivo, 336 h, dose 1.25-10 mg/kg
MV4-11 [12] = assay: Induction of cell cycle arrest at G1 phase in human MV4-11 cells at 1 nM incubated for 24 hrs by PI/RNase staining based flow cytometry relative to control; type: functional
[13] = Stability in Sprague-Dawley rat plasma at 50 ug/ml incubated upto 8 hrs by LC-MS/MS analysis; type: ADME, cell-free; details: at 50 µg/mL
[14] = Stability in monkey liver microsomes assessed as intrinsic clearance; type: ADME, Microsome; details: chlorocebus aethiops, read-out: CLH
[15] = Oral bioavailability in Sprague-Dawley rat at 10 mg/kg measured for 24 hrs by LC-MS/MS analysis; type: ADME, organism-based; details: in vivo
BaF3 [16] = assay: Antiproliferative activity against mouse Ba/F3 cells expressing FLT3-ITD D835V mutant incubated for 48 hrs by CCK8 assay; type: functional, cell-based; details: BaF3, 48 h
MV4-11 [17] = assay: Induction of cell cycle arrest at G1 phase in human MV4-11 cells at 50 nM incubated for 24 hrs by PI/RNase staining based flow cytometry relative to control; type: functional
[18] = biological target: Protein cereblon/Receptor-type tyrosine-protein kinase FLT3 (Homo sapiens, UniProt P36888+Q96SW2); assay: (§1) PROTAC activity at CRBN/FLT3-ITD mutant in human MV4-11 cells assessed as protein degradation by Western blot analysis; type: cell-based
[19] = system: Protein cereblon/Receptor-type tyrosine-protein kinase FLT3 (Homo sapiens), P36888+Q96SW2 [UNDEFINED MUTATION]; assay: as §1; type: cell-based
[20] = Antiproliferative activity against human THP-1 cells expressing wild-type FLT3 incubated for 48 hrs by CCK8 assay; type: toxicity, cell-based
[21] = Antiproliferative activity against mouse Ba/F3 FLT3-ITD cells incubated for 48 hrs by CCK8 assay; type: functional, cell-based
[22] = Toxicity in nu/nu mouse xenografted with human MV4-11 cells assessed as damage in liver at 1.25 to 10 mg/kg, po administered daily for 2 weeks by H and E staining based analysis; type: organism-based; details: in vivo, 336 h, dose 1.25-10 mg/kg
MV4-11 [23] = assay: Antitumor activity against human MV4-11 cells expressing luciferase xenografted in NSG mouse assessed as decrease in leukemic burden at 2.5 to 10 mg/kg, po administered daily for 3 weeks by bioluminescence imaging; type: functional, organism-based; details: dose 2.5-10 mg/kg
[24] = system: Protein cereblon/Receptor-type tyrosine-protein kinase FLT3 (Homo sapiens), P36888+Q96SW2 [UNDEFINED MUTATION]; assay: PROTAC activity at CRBN/FLT3-ITD mutant in human MV4-11 cells assessed as protein degradation at 100 nM incubated for 24 hrs by Western blot analysis; type: cell-based
MOLM-13 = assay: Induction of cell cycle arrest at G1 phase in human MOLM-13 cells incubated for 24 hrs by PI/RNase staining based flow cytometry; type: functional; details: dose 1-50 nM
[25] = Toxicity in nu/nu mouse xenografted with human MV4-11 cells assessed as damage in kidney at 1.25 to 10 mg/kg, po administered daily for 2 weeks by H and E staining based analysis; type: organism-based; details: in vivo, 336 h, dose 1.25-10 mg/kg
[26] = Clearance in Sprague-Dawley rat at 1 mg/kg, iv measured for 24 hrs by LC-MS/MS analysis; type: ADME, organism-based; details: in vivo
[27] = system: Protein cereblon/Receptor-type tyrosine-protein kinase FLT3 (Homo sapiens), P36888+Q96SW2 [UNDEFINED MUTATION]; assay: PROTAC activity at CRBN/FLT3-ITD in human MV4-11 cells assessed as protein degradation by TMT-based global proteomic profiling analysis; type: cell-based

Chain of Protein cereblon/Receptor-type tyrosine-protein kinase FLT3 (Homo sapiens), P36888+Q96SW2 [UNDEFINED MUTATION] (P36888 whole entry, looked up, stated change not applied): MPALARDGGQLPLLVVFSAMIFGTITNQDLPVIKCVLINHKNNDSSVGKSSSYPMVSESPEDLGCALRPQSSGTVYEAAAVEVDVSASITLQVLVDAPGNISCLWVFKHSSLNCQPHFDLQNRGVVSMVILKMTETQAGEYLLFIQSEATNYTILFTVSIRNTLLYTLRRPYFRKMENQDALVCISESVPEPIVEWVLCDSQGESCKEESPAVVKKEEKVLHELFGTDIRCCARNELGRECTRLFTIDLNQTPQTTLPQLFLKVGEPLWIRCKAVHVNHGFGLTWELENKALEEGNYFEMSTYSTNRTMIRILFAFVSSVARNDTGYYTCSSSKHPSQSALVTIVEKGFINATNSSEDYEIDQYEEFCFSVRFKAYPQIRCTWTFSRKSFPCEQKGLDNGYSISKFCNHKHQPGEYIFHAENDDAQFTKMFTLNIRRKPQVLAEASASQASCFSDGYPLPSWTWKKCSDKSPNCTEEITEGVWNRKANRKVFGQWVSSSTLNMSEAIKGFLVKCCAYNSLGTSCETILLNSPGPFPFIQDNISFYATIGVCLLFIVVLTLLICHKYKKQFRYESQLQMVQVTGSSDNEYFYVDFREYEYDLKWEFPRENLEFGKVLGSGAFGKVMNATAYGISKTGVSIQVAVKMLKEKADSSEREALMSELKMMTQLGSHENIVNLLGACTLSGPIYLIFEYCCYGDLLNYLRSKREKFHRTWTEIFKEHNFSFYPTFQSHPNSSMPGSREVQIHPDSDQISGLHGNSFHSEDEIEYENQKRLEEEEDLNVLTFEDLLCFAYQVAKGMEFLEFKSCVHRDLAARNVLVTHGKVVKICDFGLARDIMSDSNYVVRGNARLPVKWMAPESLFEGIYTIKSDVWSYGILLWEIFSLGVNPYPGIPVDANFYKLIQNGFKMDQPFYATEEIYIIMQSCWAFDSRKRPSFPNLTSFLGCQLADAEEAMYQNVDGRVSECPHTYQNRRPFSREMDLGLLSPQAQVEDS
Chain of Protein cereblon/Receptor-type tyrosine-protein kinase FLT3 (Homo sapiens), P36888+Q96SW2 [UNDEFINED MUTATION] (Q96SW2 whole entry, looked up, stated change not applied): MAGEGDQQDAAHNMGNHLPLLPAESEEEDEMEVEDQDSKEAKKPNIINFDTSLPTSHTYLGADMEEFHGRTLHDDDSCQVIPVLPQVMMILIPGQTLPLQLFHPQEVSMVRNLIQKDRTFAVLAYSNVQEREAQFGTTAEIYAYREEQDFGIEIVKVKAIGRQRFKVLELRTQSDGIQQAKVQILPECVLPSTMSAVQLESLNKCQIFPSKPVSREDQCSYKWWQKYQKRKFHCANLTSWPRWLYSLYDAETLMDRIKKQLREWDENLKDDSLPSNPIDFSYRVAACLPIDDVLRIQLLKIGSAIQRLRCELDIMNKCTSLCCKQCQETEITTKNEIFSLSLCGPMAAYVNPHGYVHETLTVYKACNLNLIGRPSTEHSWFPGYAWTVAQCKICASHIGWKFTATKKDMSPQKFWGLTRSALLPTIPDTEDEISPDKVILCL
Chain of Protein cereblon/Receptor-type tyrosine-protein kinase FLT3 (P36888 whole entry, looked up, change not shown): as the sequence (P36888 whole entry, looked up, stated change not applied) above
Chain of Protein cereblon/Receptor-type tyrosine-protein kinase FLT3 (Q96SW2 whole entry, looked up, change not shown): as the sequence (Q96SW2 whole entry, looked up, stated change not applied) above

SMILES: Cc1c(NC(=O)CN2CCN(CC3CCN(c4ccc5c(c4)C(=O)N(C4CCC(=O)NC4=O)C5=O)CC3)CC2)c[nH]c1/C=C1\C(=O)Nc2ccc(F)cc21 (centres undefined)
- inhibition in vivo at 10 mg/kg (MV4-11 [1]): 100%
- AUC(0-t) at 24 h [2]: 14700 ng·h/mL
- CLint scaled [3]: 17.7 mL/min/kg
- Activity [4]: Tde
- Activity [5]: Non-Toxic
- Activity [6]: Dose-Dependent Effect
- CLhep predicted [7]: 20.5 mL/min/kg
- IC50 (BaF3 [8]): 0.0662 µM
- IC50 (BaF3 [9]): 0.0313 µM
- IC50 (Cytochrome P450 1A2): > 50 µM
- IC50 at 48 h [10]: > 40 µM
- Activity [11]: Non-Toxic
- Activity (MV4-11 [12]): 82%
- Stability [13]: Stable
- CLint scaled [14]: 50.7 mL/min/kg
- bioavailability [15]: 53%
- IC50 (BaF3 [16]): 0.0451 µM
- Activity (MV4-11 [17]): 89.2%
- DC50 [18]: 0.0074 µM
- Activity [19]: Dose-Dependent Effect
- IC50 at 48 h [20]: 15.1 µM
- IC50 [21]: 0.017 µM
- Activity [22]: Non-Toxic
- Activity (MV4-11 [23]): Active
- Activity [24]: Active
- Activity (MOLM-13): Dose-Dependent Effect
- Activity [25]: Non-Toxic
- clearance [26]: 3.5 mL/min/kg
- Activity [27]: Active
